“And” between values parts separate entries of the source, which are not always exact repeats. Equal entries are not always repeated. Inconclusive results and toxic doses are left out. No stated cut-off is given here; in the data, active means T/C of 150% or more; inactive means T/C below 125%.
System: L1210 leukemia ip in BDF1 mice, survival T/C
Assay: NCI In Vivo Anticancer Drug Screen. Data for tumor model L1210 Leukemia (intraperitoneal) in B6D2F1 (BDF1) mice
Details: endpoint: mean survival time, higher = longer survival
Method in brief: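 Transplantable tumor model; survival measured in treated vs vehicle control mice. Value = treated/control.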

[1] = dose: 100.0 mg/kg/injection, schedule: Q01DX009 (ip), vehicle: Klucel (hydroxypropylcellulose) (HPC)
[2] = dose: 100.0 mg/kg/injection, schedule: Q04DX003 (ip), vehicle: Klucel (hydroxypropylcellulose) (HPC)
[3] = dose: 200.0 mg/kg/injection, schedule: Q01DX009 (ip), vehicle: Klucel (hydroxypropylcellulose) (HPC)
[4] = dose: 200.0 mg/kg/injection, schedule: Q04DX003 (ip), vehicle: Klucel (hydroxypropylcellulose) (HPC)
[5] = dose: 400.0 mg/kg/injection, schedule: Q01DX009 (ip), vehicle: Klucel (hydroxypropylcellulose) (HPC)
[6] = dose: 400.0 mg/kg/injection, schedule: Q04DX003 (ip), vehicle: Klucel (hydroxypropylcellulose) (HPC)
[7] = dose: 100.0 mg/kg/injection, schedule: Q01DX009 (ip), vehicle: saline with Tween-80
[8] = dose: 200.0 mg/kg/injection, schedule: Q01DX009 (ip), vehicle: saline with Tween-80
[9] = dose: 400.0 mg/kg/injection, schedule: Q01DX009 (ip), vehicle: saline with Tween-80
[10] = dose: 100.0 mg/kg/injection, schedule: Q04DX002 (ip), vehicle: saline with Tween-80
[11] = dose: 200.0 mg/kg/injection, schedule: Q04DX002 (ip), vehicle: saline with Tween-80
[12] = dose: 400.0 mg/kg/injection, schedule: Q04DX002 (ip), vehicle: saline with Tween-80
[13] = dose: 50.0 mg/kg/injection, schedule: Q01DX009 (ip), vehicle: saline
[14] = dose: 100.0 mg/kg/injection, schedule: Q01DX001 (ip), vehicle: carboxymethylcellulose (CMC)
[15] = dose: 200.0 mg/kg/injection, schedule: Q01DX001 (ip), vehicle: carboxymethylcellulose (CMC)
[16] = dose: 400.0 mg/kg/injection, schedule: Q01DX001 (ip), vehicle: carboxymethylcellulose (CMC)
[17] = dose: 100.0 mg/kg/injection, schedule: Q01DX001 (ip), vehicle: Klucel (hydroxypropylcellulose) (HPC)
[18] = dose: 200.0 mg/kg/injection, schedule: Q01DX001 (ip), vehicle: Klucel (hydroxypropylcellulose) (HPC)
[19] = dose: 400.0 mg/kg/injection, schedule: Q01DX001 (ip), vehicle: Klucel (hydroxypropylcellulose) (HPC)
[20] = dose: 100.0 mg/kg/injection, schedule: Q04DX003 (ip), vehicle: saline
[21] = dose: 100.0 mg/kg/injection, schedule: Q01DX001 (ip), vehicle: saline
[22] = dose: 200.0 mg/kg/injection, schedule: Q01DX001 (ip), vehicle: saline
[23] = dose: 400.0 mg/kg/injection, schedule: Q01DX001 (ip), vehicle: saline

Measured: T/C

CCN(CC)c1cc(Cl)c(C=O)cc1[N+](=O)[O-]
inactive: [1] 100 % of control | [2] 94 % of control | [3] 107 % of control | [4] 96 % of control | [5] 102 % of control | [6] 102 % of control

Cc1ccccc1SCC(N)=O
inactive: [2] 91 % of control | [4] 98 % of control | [6] 107 % of control

CC1=C(C)C(=O)C(CC2=C(C)C(=O)C(C)=C(C)C2=O)=C(C)C1=O
inactive: dose: 100.0 mg/kg/injection, schedule: Q01DX005 (ip), vehicle: saline with Tween-80 101 % of control | [7] 96 % of control | dose: 200.0 mg/kg/injection, schedule: Q01DX005 (ip), vehicle: saline with Tween-80 96 % of control | [8] 100 % of control | dose: 400.0 mg/kg/injection, schedule: Q01DX005 (ip), vehicle: saline with Tween-80 104 % of control | [9] 96 % of control

COC(=O)c1c(C(=O)OC)c2c(-c3ccccc3)cc3cccc1n32
inactive: [2] 94 % of control | [4] 102 % of control | [6] 94 % of control

Oc1ccc(Br)cc1C=Nc1cccc(C(F)(F)F)c1
inactive: [10] 102 % of control | [11] 100 % of control | [12] 96 % of control

CC1CCc2nc(C#N)c(N)nc2C1 (stereo not given)
inactive: dose: 50.0 mg/kg/injection, schedule: Q01DX009 (ip), vehicle: Klucel (hydroxypropylcellulose) (HPC) 103 % of control | [1] 97 % of control | [3] 106 % of control

CC(C)=NNC(N)=O
inactive: dose: 12.5 mg/kg/injection, schedule: Q01DX009 (ip), vehicle: saline 97 % of control | dose: 25.0 mg/kg/injection, schedule: Q01DX009 (ip), vehicle: saline 100 % of control | dose: 25.0 mg/kg/injection, schedule: Q04DX002 (ip), vehicle: saline 98 % of control | [13] 94 % of control | dose: 50.0 mg/kg/injection, schedule: Q04DX002 (ip), vehicle: saline 103 % of control

NC(=O)c1ccc(O)cc1
inactive: [14] 92 % of control | [15] 92 % of control | [16] 89 % of control

CC(=N/Nc1ccc([N+](=O)[O-])cc1[N+](=O)[O-])/C(C)=C/C1C=CCCC1(C)C (stereo not given)
inactive: [10] 100 % of control | [11] 103 % of control | [12] 96 % of control

O=[N+]([O-])c1ccccc1CN1CCCCC1
inactive: dose: 5.0 mg/kg/injection, schedule: Q01DX001 (ip), vehicle: saline 102 % of control | dose: 10.0 mg/kg/injection, schedule: Q01DX001 (ip), vehicle: saline 102 % of control | dose: 20.0 mg/kg/injection, schedule: Q01DX001 (ip), vehicle: saline 102 % of control

O=C(COc1cccc(Cl)c1Cl)Nc1cccnc1
inactive: dose: 100.0 mg/kg/injection, schedule: Q04DX003 (ip), vehicle: saline with Tween-80 102 % of control | dose: 200.0 mg/kg/injection, schedule: Q04DX003 (ip), vehicle: saline with Tween-80 96 % of control | dose: 400.0 mg/kg/injection, schedule: Q04DX003 (ip), vehicle: saline with Tween-80 98 % of control

CSc1nc(N)c(N=Nc2ccc(S(=O)(=O)Nc3nnc(C)s3)cc2)c(=O)[nH]1
inactive: [14] 95 % of control | [15] 97 % of control | [16] 101 % of control

OC(Cc1ccccc1)(c1ccc(Cl)cc1)c1ccc(Cl)cc1
inactive: [17] 107 % of control | [18] 95 % of control | [19] 101 % of control

CSc1ccc(NC(=O)NCCc2ccccc2)cc1
inactive: [7] 94 % of control | [2] 96 % of control | [8] 102 % of control | [4] 96 % of control | [9] 107 % of control | [6] 104 % of control

CCOC(=O)N1C=Cn2c(cnc2C)C1OCC (stereo not given)
inactive: [13] 109 % of control | dose: 100.0 mg/kg/injection, schedule: Q01DX009 (ip), vehicle: saline 100 % of control and 92 % of control | [20] 91 % of control | dose: 200.0 mg/kg/injection, schedule: Q01DX009 (ip), vehicle: saline 110 % of control and 90 % of control | dose: 200.0 mg/kg/injection, schedule: Q04DX003 (ip), vehicle: saline 94 % of control | dose: 400.0 mg/kg/injection, schedule: Q01DX009 (ip), vehicle: saline 92 % of control

O=[N+]([O-])c1ccc(N/N=C\c2c(Cl)c(Cl)c(/C=N/Nc3ccc([N+](=O)[O-])cc3)c(Cl)c2Cl)cc1
inactive: dose: 50.0 mg/kg/injection, schedule: Q01DX001 (ip), vehicle: saline 91 % of control | [21] 91 % of control | [22] 94 % of control | [23] 94 % of control

CCOC(=O)Cc1cc(O)ccc1O
inactive: dose: 100.0 mg/kg/injection, schedule: Q01DX001 (ip), vehicle: saline with Tween-80 109 % of control | dose: 200.0 mg/kg/injection, schedule: Q01DX001 (ip), vehicle: saline with Tween-80 89 % of control | dose: 400.0 mg/kg/injection, schedule: Q01DX001 (ip), vehicle: saline with Tween-80 91 % of control

Cc1cccc(Cl)c1OCC(=O)Nc1ccccc1
inactive: [10] 101 % of control | [11] 104 % of control

COc1ccc(CCN2COc3ccc4ccc(=O)oc4c3C2)cc1OC
inactive: dose: 100.0 mg/kg/injection, schedule: Q04DX003 (ip), vehicle: saline sonified 111 % of control | dose: 200.0 mg/kg/injection, schedule: Q04DX003 (ip), vehicle: saline sonified 111 % of control | dose: 400.0 mg/kg/injection, schedule: Q04DX003 (ip), vehicle: saline sonified 106 % of control

O=C1CC=Nc2ccc([N+](=O)[O-])cc21
inactive: [1] 101 % of control | [2] 98 % of control | [3] 97 % of control | [4] 109 % of control | [5] 101 % of control | [6] 108 % of control

CCC(=O)Nc1cccc(OC(=O)NC(C)C)c1
inactive: [7] 95 % of control | [8] 90 % of control

S=C1CCNCC1
inactive: [20] 88 % of control

CN(C)c1ccc(C=O)c(Br)c1
inactive: [1] 96 % of control | [2] 96 % of control | [3] 91 % of control | [4] 111 % of control | [5] 103 % of control | [6] 100 % of control

Cc1ccc(C(=O)C[n+]2cccc3ccccc32)c(C)c1
inactive: dose: 25.0 mg/kg/injection, schedule: Q04DX002 (ip), vehicle: saline with Tween-80 93 % of control

COc1ccccc1CC(=O)Oc1ccccc1
inactive: [21] 97 % of control | [22] 96 % of control | [23] 102 % of control

CC(=O)Nc1nc(C=O)cc(=O)[nH]1
inactive: [17] 100 % of control | dose: 100.0 mg/kg/injection, schedule: Q01DX001 (ip), vehicle: other 86 % of control | [18] 104 % of control | [19] 103 % of control | dose: 400.0 mg/kg/injection, schedule: Q01DX001 (ip), vehicle: other 91 % of control

Source: PubChem BioAssay AID248 (DTP/NCI, 2004)
